Tested on: not listed separately
Assay: MTT assay, cytotoxicity against host Huh7.5.1 cells
Assay type: cell-based
Conditions: human
Experimental: (§1) The anti-HCV assay was performed as described previously.[3] In brief, Huh7.5.1 cells were treated with HCV JFH-1 at a multiplicity of infection (MOI) of 0.15 for 4 h. […] The infectivity of HCV in the medium was quantified by a focus-forming assay with Huh7.5.1 cells. Cell viability at 72 h post-treatment was simultaneously measured by the MTT assay.[16] Cell growth inhibition was evaluated as the ratio of the absorbance of the sample to that of the control.

Q: Which CC50 at 72 h does the source give for C=c1[nH]c(=O)/c(=C/c2ccc(OC)cc2)[nH]c1=O [1i] here?
A: The CC50 at 72 h was over 20 µM.

Q: Which CC50 at 72 h does the source give for C=c1[nH]c(=O)/c(=C/c2ccc(C(=O)OC)cc2)[nH]c1=O [1l] here?
A: The CC50 at 72 h was over 20 µM.

Q: With C=c1[nH]c(=O)/c(=C/c2c[nH]c3ccccc23)[nH]c1=O [1b, (Z)-3-[(1H-Indol-3-yl)methylene]-6-methylenepiperazine-2,5-dione] as the compound, how does the CC50 at 72 h read?
A: The CC50 at 72 h was over 20 µM.

Q: Which CC50 at 72 h does the source give for C=c1[nH]c(=O)/c(=C/c2ccc(-c3ccccc3)cc2)[nH]c1=O [1o] here?
A: Its CC50 at 72 h is over 20 µM.

Q: Which CC50 at 72 h does the source give for C=CC(C)(C)c1[nH]c2ccccc2c1/C=C1\NC(=O)C(C)(OC)NC1=O (centres unmarked) [compound 6, variecolorin H] here?
A: The CC50 at 72 h was over 20 µM.

Q: For C=c1[nH]c(=O)/c(=C/c2ccoc2)[nH]c1=O [1d], which CC50 at 72 h is on record?
A: The CC50 at 72 h was over 20 µM.

Q: With C=c1[nH]c(=O)/c(=C/c2cc(OC)c(OC)c(OC)c2)[nH]c1=O [1k] as the compound, how does the CC50 at 72 h read?
A: The CC50 at 72 h was over 20 µM.

Q: For C=CC(C)(C)c1[nH]c2ccccc2c1C[C@@H]1NC(=O)[C@H](C)NC1=O [compound 8, preechinulin], which CC50 at 72 h is on record?
A: The CC50 at 72 h was over 20 µM.

Q: Which CC50 at 72 h does the source give for C=c1[nH]c(=O)/c(=C/c2ccc3ccccc3c2)[nH]c1=O [1p] here?
A: The CC50 at 72 h was over 20 µM.

Tested on: HCV JFH-1
Assay: Anti-HCV assay (infectivity of HCV in the medium, focus-forming assay)
Assay type: cell-based
Conditions: Hepatitis C virus, Huh-7.5.1; Huh7.5.1 cells, HCV JFH-1 MOI 0.15, 72 h; mean ± SD, triplicate
Experimental: as §1

Q: What does the source list for C=c1[nH]c(=O)/c(=C/c2ccc(OC)cc2)[nH]c1=O [1i]?
A: IC50: 1.3 ± 0.42 µM; IC90: > 20 µM

Q: Which results are given for C=c1[nH]c(=O)/c(=C/c2ccc(C(=O)OC)cc2)[nH]c1=O [1l]?
A: IC50: 1.2 ± 0.16 µM; IC90: 6.5 ± 1.84 µM

Q: With C=c1[nH]c(=O)/c(=C/c2c[nH]c3ccccc23)[nH]c1=O [1b, (Z)-3-[(1H-Indol-3-yl)methylene]-6-methylenepiperazine-2,5-dione] as the compound, how does the IC50 read?
A: The IC50 was 2.2 ± 0.64 µM.

Q: What about the IC90 of the same compound?
A: Its IC90 is over 20 µM.

Q: For C=c1[nH]c(=O)/c(=C/c2ccc(-c3ccccc3)cc2)[nH]c1=O [1o], which IC50 is on record?
A: The IC50 was 4.9 ± 0.66 µM.

Q: And the IC90?
A: The IC90 was over 20 µM.

Q: Which results are given for C=CC(C)(C)c1[nH]c2ccccc2c1/C=C1\NC(=O)C(C)(OC)NC1=O (centres unmarked) [compound 6, variecolorin H]?
A: IC50: > 20 µM; IC90: > 20 µM

Q: For C=c1[nH]c(=O)/c(=C/c2ccoc2)[nH]c1=O [1d], which IC50 is on record?
A: Its IC50 is 1.4 ± 0.34 µM.

Q: What about the IC90 of the same compound?
A: The IC90 was over 20 µM.

Q: Which IC50 does the source give for C=c1[nH]c(=O)/c(=C/c2cc(OC)c(OC)c(OC)c2)[nH]c1=O [1k] here?
A: The IC50 was 1.1 ± 0.6 µM.

Q: What about the IC90 of the same compound?
A: Its IC90 is over 20 µM.

Q: What does the source list for C=CC(C)(C)c1[nH]c2ccccc2c1C[C@@H]1NC(=O)[C@H](C)NC1=O [compound 8, preechinulin]?
A: IC50: > 20 µM; IC90: > 20 µM

Q: With C=c1[nH]c(=O)/c(=C/c2ccc3ccccc3c2)[nH]c1=O [1p] as the compound, how does the IC50 read?
A: The IC50 was 0.26 ± 0.11 µM.

Q: What about the IC90 of the same compound?
A: Its IC90 is 1.9 ± 0.65 µM.

Tested on: not given
Assay: not given
Conditions: not given

Q: For C=c1[nH]c(=O)/c(=C/c2ccc(OC)cc2)[nH]c1=O [1i], which melting point is on record?
A: The melting point was 229 to 231 °C.

Q: Which melting point does the source give for C=c1[nH]c(=O)/c(=C/c2ccc(C(=O)OC)cc2)[nH]c1=O [1l] here?
A: The melting point was 248 to 249 °C.

Q: With C=c1[nH]c(=O)/c(=C/c2c[nH]c3ccccc23)[nH]c1=O [1b, (Z)-3-[(1H-Indol-3-yl)methylene]-6-methylenepiperazine-2,5-dione] as the compound, how does the melting point read?
A: Its melting point is 285 to 286 °C.

Q: Which melting point does the source give for C=c1[nH]c(=O)/c(=C/c2ccc(-c3ccccc3)cc2)[nH]c1=O [1o] here?
A: The melting point was 229 to 230 °C.

Q: With C=c1[nH]c(=O)/c(=C/c2ccoc2)[nH]c1=O [1d] as the compound, how does the melting point read?
A: The melting point was 242 to 243 °C.

Q: Which melting point does the source give for C=c1[nH]c(=O)/c(=C/c2cc(OC)c(OC)c(OC)c2)[nH]c1=O [1k] here?
A: The melting point was 219 to 221 °C.

Q: With C=c1[nH]c(=O)/c(=C/c2ccc3ccccc3c2)[nH]c1=O [1p] as the compound, how does the melting point read?
A: The melting point was 216 to 217 °C.

Tested on: not listed separately
Assay: Cell viability of VeroE6/TMPRSS2 cells (DAPI staining, cell count)
Assay type: cell-based
Conditions: chlorocebus sabaeus, 24 h, DAPI staining, surviving cell number, read-out: Cytotoxicity CC50
Experimental: (§2) The number of cells was quantified based on the measurement of the DNA content.[20] Cell growth inhibition was evaluated as the ratio of the absorbance of the sample to that of the control. […] The cells were washed with PBS and fixed in 4% paraformaldehyde. The resultant cells were stained with 0.02% 4′,6-diamidino-2-phenylindole (DAPI) and washed with PBS four times. The number of surviving cells was quantified with a high-content imaging analyzer, ImageXpress Micro Confocal (Molecular Device, San Jose, CA, USA).

Q: With C=c1[nH]c(=O)/c(=C/c2ccc(OC)cc2)[nH]c1=O [1i] as the compound, how does the CC50 at 24 h read?
A: The CC50 at 24 h was 47.2 ± 0.6 µM.

Q: Which CC50 at 24 h does the source give for C=c1[nH]c(=O)/c(=C/c2ccc(C(=O)OC)cc2)[nH]c1=O [1l] here?
A: The CC50 at 24 h was over 50 µM.

Q: With C=c1[nH]c(=O)/c(=C/c2c[nH]c3ccccc23)[nH]c1=O [1b, (Z)-3-[(1H-Indol-3-yl)methylene]-6-methylenepiperazine-2,5-dione] as the compound, how does the CC50 at 24 h read?
A: Its CC50 at 24 h is over 100 µM.

Q: Which CC50 at 24 h does the source give for C=c1[nH]c(=O)/c(=C/c2ccc(-c3ccccc3)cc2)[nH]c1=O [1o] here?
A: The CC50 at 24 h was over 100 µM.

Q: With C=CC(C)(C)c1[nH]c2ccccc2c1/C=C1\NC(=O)C(C)(OC)NC1=O (centres unmarked) [compound 6, variecolorin H] as the compound, how does the CC50 at 24 h read?
A: Its CC50 at 24 h is over 100 µM.

Q: Which CC50 at 24 h does the source give for C=c1[nH]c(=O)/c(=C/c2ccoc2)[nH]c1=O [1d] here?
A: The CC50 at 24 h was over 80 µM.

Q: For C=c1[nH]c(=O)/c(=C/c2cc(OC)c(OC)c(OC)c2)[nH]c1=O [1k], which CC50 at 24 h is on record?
A: Its CC50 at 24 h is 78.8 ± 4.5 µM.

Q: Which CC50 at 24 h does the source give for C=CC(C)(C)c1[nH]c2ccccc2c1C[C@@H]1NC(=O)[C@H](C)NC1=O [compound 8, preechinulin] here?
A: The CC50 at 24 h was over 100 µM.

Q: Which CC50 at 24 h does the source give for C=c1[nH]c(=O)/c(=C/c2ccc3ccccc3c2)[nH]c1=O [1p] here?
A: Its CC50 at 24 h is 40.7 ± 20.1 µM.

Tested on: VeroE6/TMPRSS2 cells
Assay: as above
Assay type: cell-based
Conditions: not given
Experimental: as §2

Q: For C=c1[nH]c(=O)/c(=C/c2ccc(OC)cc2)[nH]c1=O [1i], which “Toxicity toward the host cells (in words)” value is on record?
A: The value was “showed toxicity toward the host cells”.

Tested on: SARS-CoV-2 Wk-521 strain
Assay: Anti-SARS-CoV-2 assay (extracellular viral RNA, VeroE6/TMPRSS2 cells)
Conditions: not given

Q: Which “Anti-SARS-CoV-2 activity (in words)” value does the source give for C=c1[nH]c(=O)/c(=C/c2ccc(C(=O)OC)cc2)[nH]c1=O [1l] here?
A: The value was “exhibited anti-SARS-CoV-2 activity”.

Q: For C=c1[nH]c(=O)/c(=C/c2c[nH]c3ccccc23)[nH]c1=O [1b, (Z)-3-[(1H-Indol-3-yl)methylene]-6-methylenepiperazine-2,5-dione], which “Anti-SARS-CoV-2 activity (in words)” value is on record?
A: The value was “did not show anti-SARS-CoV-2 activity”.

Q: Which “Anti-SARS-CoV-2 activity (in words)” value does the source give for C=c1[nH]c(=O)/c(=C/c2ccc(-c3ccccc3)cc2)[nH]c1=O [1o] here?
A: The value was “exhibited anti-SARS-CoV-2 activity”.

Q: For C=c1[nH]c(=O)/c(=C/c2ccoc2)[nH]c1=O [1d], which “Anti-SARS-CoV-2 activity (in words)” value is on record?
A: The value was “exhibited anti-SARS-CoV-2 activity”.

Q: With C=c1[nH]c(=O)/c(=C/c2cc(OC)c(OC)c(OC)c2)[nH]c1=O [1k] as the compound, how does the “Anti-SARS-CoV-2 activity (in words)” value read?
A: The value was “did not show anti-SARS-CoV-2 activity”.

Q: With C=c1[nH]c(=O)/c(=C/c2ccc3ccccc3c2)[nH]c1=O [1p] as the compound, how does the “Anti-SARS-CoV-2 activity (in words)” value read?
A: Its value is “did not show anti-SARS-CoV-2 activity”.

Same assay, conditions: read-out: Anti-SARS-CoV-2 activity IC50, MOI 0.003, 24 h, extracellular viral RNA, mean ± SD, triplicate

Q: For C=c1[nH]c(=O)/c(=C/c2ccc(C(=O)OC)cc2)[nH]c1=O [1l], which IC50 is on record?
A: Its IC50 is 8.4 ± 2.1 µM.

Q: With C=c1[nH]c(=O)/c(=C/c2c[nH]c3ccccc23)[nH]c1=O [1b, (Z)-3-[(1H-Indol-3-yl)methylene]-6-methylenepiperazine-2,5-dione] as the compound, how does the IC50 read?
A: The IC50 was over 40 µM.

Q: With C=c1[nH]c(=O)/c(=C/c2ccc(-c3ccccc3)cc2)[nH]c1=O [1o] as the compound, how does the IC50 read?
A: Its IC50 is 20.8 ± 8 µM.

Q: With C=CC(C)(C)c1[nH]c2ccccc2c1/C=C1\NC(=O)C(C)(OC)NC1=O (centres unmarked) [compound 6, variecolorin H] as the compound, how does the IC50 read?
A: The IC50 was over 40 µM.

Q: Which IC50 does the source give for C=c1[nH]c(=O)/c(=C/c2ccoc2)[nH]c1=O [1d] here?
A: The IC50 was 9.3 ± 6.2 µM.

Q: Which IC50 does the source give for C=CC(C)(C)c1[nH]c2ccccc2c1C[C@@H]1NC(=O)[C@H](C)NC1=O [compound 8, preechinulin] here?
A: Its IC50 is over 40 µM.

Q: Which IC50 does the source give for C=c1[nH]c(=O)/c(=C/c2ccc3ccccc3c2)[nH]c1=O [1p] here?
A: The IC50 was over 40 µM.

Same assay, conditions: read-out: Anti-SARS-CoV-2 activity IC90, MOI 0.003, 24 h, extracellular viral RNA, mean ± SD, triplicate

Q: With C=c1[nH]c(=O)/c(=C/c2ccc(C(=O)OC)cc2)[nH]c1=O [1l] as the compound, how does the IC90 read?
A: The IC90 was 14.1 ± 1.8 µM.

Q: Which IC90 does the source give for C=c1[nH]c(=O)/c(=C/c2c[nH]c3ccccc23)[nH]c1=O [1b, (Z)-3-[(1H-Indol-3-yl)methylene]-6-methylenepiperazine-2,5-dione] here?
A: The IC90 was over 40 µM.

Q: Which IC90 does the source give for C=c1[nH]c(=O)/c(=C/c2ccc(-c3ccccc3)cc2)[nH]c1=O [1o] here?
A: Its IC90 is over 40 µM.

Q: Which IC90 does the source give for C=CC(C)(C)c1[nH]c2ccccc2c1/C=C1\NC(=O)C(C)(OC)NC1=O (centres unmarked) [compound 6, variecolorin H] here?
A: Its IC90 is over 40 µM.

Q: For C=c1[nH]c(=O)/c(=C/c2ccoc2)[nH]c1=O [1d], which IC90 is on record?
A: Its IC90 is 21.2 ± 9 µM.

Q: Which IC90 does the source give for C=c1[nH]c(=O)/c(=C/c2cc(OC)c(OC)c(OC)c2)[nH]c1=O [1k] here?
A: The IC90 was over 40 µM.

Q: Which IC90 does the source give for C=CC(C)(C)c1[nH]c2ccccc2c1C[C@@H]1NC(=O)[C@H](C)NC1=O [compound 8, preechinulin] here?
A: The IC90 was over 40 µM.

Q: Which IC90 does the source give for C=c1[nH]c(=O)/c(=C/c2ccc3ccccc3c2)[nH]c1=O [1p] here?
A: Its IC90 is over 40 µM.

Source: paper PMC8751641, “Synthesis and Antiviral Activities of Neoechinulin B and Its Derivatives” (Journal of Natural Products, 2021)
